From US20230373985A1 (Origenis Gmbh, priority 2020, published 2023) come the findings set out here.

Assay [1] addresses T1, wt human JAK1, catalytic site (Homo sapiens, UniProt P23458).
T1 construct: wt human JAK1, catalytic site; purchased ThermoFisher
Briefly: HTRF KinEASE assay, JAK1. As to conditions: 2.5 μM ATP; read-out: IC50, Activity Toward JAK1. The assay is classed as biochemical. The method in brief: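 Two-step HTRF KinEASE assay: compound, kinase/biotinylated TK substrate and ATP were incubated at least 30 min at room temperature. Antibody plus streptavidin-XL665 was then added and plates were read after 60 min. Inhibition was derived from emission ratios according to the kit protocol.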
For orientation: TR-FRET usually uses a lanthanide donor and a delayed reading to cut background.

Assay [2] has as its target T2, wt human TYK2, catalytic site (Homo sapiens, UniProt P29597).
T2 construct: wt human TYK2, catalytic site; purchased SignalChem
T2 sequence (P29597 897-1176 limits assumed): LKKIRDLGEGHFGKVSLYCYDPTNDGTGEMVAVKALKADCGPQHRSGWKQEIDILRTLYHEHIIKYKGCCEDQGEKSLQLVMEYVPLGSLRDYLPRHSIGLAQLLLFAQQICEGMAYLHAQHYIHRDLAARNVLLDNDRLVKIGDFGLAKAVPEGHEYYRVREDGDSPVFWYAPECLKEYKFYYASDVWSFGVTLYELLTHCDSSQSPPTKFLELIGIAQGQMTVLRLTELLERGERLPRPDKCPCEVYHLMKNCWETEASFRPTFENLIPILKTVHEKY
Briefly: HTRF KinEASE assay, TYK2. The assay is classed as biochemical. As to conditions: 1 μM ATP; read-out: IC50, Activity Toward TYK2. The method in brief: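 HTRF KinEASE-TK readout with 1 μM biotinylated TK substrate in 1× kinase buffer, ≥30 min at room temperature, then antibody/streptavidin-XL665 detection for 60 min. TYK2 at 2 nM with 1 μM ATP; JAK2 at 1 nM with 100 μM ATP. Analysis uses emission ratios.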

T1 sequence (P23458 875-1153 limits assumed): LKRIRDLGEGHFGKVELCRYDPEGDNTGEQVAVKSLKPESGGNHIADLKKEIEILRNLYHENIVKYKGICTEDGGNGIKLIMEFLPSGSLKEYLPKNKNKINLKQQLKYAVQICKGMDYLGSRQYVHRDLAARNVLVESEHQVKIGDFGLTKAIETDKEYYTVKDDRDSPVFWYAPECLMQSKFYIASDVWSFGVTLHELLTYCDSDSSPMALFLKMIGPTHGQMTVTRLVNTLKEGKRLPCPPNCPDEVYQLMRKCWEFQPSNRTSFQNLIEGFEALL

The term IC50 denotes the point on the concentration scale where inhibition reaches its midpoint. With `CCc1ccnn1-c1ccc(Nc2cn(-c3c(Cl)cccc3Cl)nc2C(N)=O)cc1` [compound 241, 1-(2,6-dichlorophenyl)-4-((4-(5-ethyl-1H-pyrazol-1-yl)phenyl)amino)-1H-pyrazole-3-carboxamide], the IC50 was under 10 nM in assay [1] and 10 to 100 nM in assay [2].

Consider `N=S1(=O)CCN(C(=O)c2ccc(Nc3cn(-c4c(Cl)cccc4Cl)nc3C(N)=O)cc2)CC1` [compound 468, 1-(2,6-dichlorophenyl)-4-((4-(1-imino-1-oxidothiomorpholine-4-carbonyl)phenyl)amino)-1H-pyrazole-3-carboxamide], for which the IC50 in assay [1] and in assay [2] was under 10 nM throughout.

Turning to `Cc1c(C#N)cnn1-c1ccc(Nc2cn(-c3c(Cl)cccc3Cl)nc2C(N)=O)cc1` [compound 253, 4-((4-(4-cyano-5-methyl-1H-pyrazol-1-yl)phenyl)amino)-1-(2,6-dichlorophenyl)-1H-pyrazole-3-carboxamide], the 50% inhibitory concentration (IC50) in assay [1] and in assay [2] was 100 to 1000 nM each time.

Consider `NC(=O)c1nn(-c2c(Cl)cccc2Cl)cc1Nc1ccc(-n2nc(C(F)(F)F)nc2CO)cc1` [compound 371, 1-(2,6-dichlorophenyl)-4-((4-(5-(hydroxymethyl)-3-(trifluoromethyl)-1H-1,2,4-triazol-1-yl)phenyl)amino)-1H-pyrazole-3-carboxamide], for which the IC50 in assay [1] was 100 to 1000 nM; in assay [2], under 10 nM.

`CN1CCn2c(nnc2-c2ccc(Nc3cn(-c4c(Cl)cccc4Cl)nc3C(N)=O)cc2)C1` [compound 269, 1-(2,6-dichlorophenyl)-4-((4-(7-methyl-5,6,7,8-tetrahydro-[1,2,4]triazolo[4,3-a]pyrazin-3-yl)phenyl)amino)-1H-pyrazole-3-carboxamide]: the half-maximal inhibitory concentration (IC50) in assay [1] and in assay [2] was 10 to 100 nM throughout.

`Cc1cccc2nnc(-c3ccc(Nc4nn(-c5c(Cl)cccc5Cl)nc4C(N)=O)cn3)n12` [compound 139, 2-(2,6-dichlorophenyl)-5-((6-(5-methyl-[1,2,4]triazolo[4,3-a]pyridin-3-yl)pyridin-3-yl)amino)-2H-1,2,3-triazole-4-carboxamide]: the IC50 in assay [1] was in the range of 10 to 100 nM; in assay [2], 100 to 1000 nM.

`NC(=O)c1nn(-c2c(Cl)cccc2Cl)cc1Nc1ccc(C(=O)N2CC[C@@H](N3CCCC3)C2)nc1` [compound 356, (R)-4-((6-([1,3′-bipyrrolidine]-1′-carbonyl)pyridin-3-yl)amino)-1-(2,6-dichlorophenyl)-1H-pyrazole-3-carboxamide]: the figures for the IC50 in assay [1] and in assay [2] were 100 to 1000 nM and 10 to 100 nM, respectively.

Take `NC(=O)c1nn(-c2c(Cl)cccc2Cl)cc1Nc1ccc(CN2CCS(=O)(=O)CC2)nc1` [compound 455, 1-(2,6-dichlorophenyl)-4-((6-((1,1-dioxidothiomorpholino)methyl)pyridin-3-yl)amino)-1H-pyrazole-3-carboxamide]: the IC50 in assay [1] was 100 to 1000 nM; in assay [2] it was 10 to 100 nM.

For the compound `Cn1cc(Nc2cn(-c3c(Cl)cccc3Cl)nc2C(N)=O)cn1` [compound 377, 1-(2,6-dichlorophenyl)-4-((1-methyl-1H-pyrazol-4-yl)amino)-1H-pyrazole-3-carboxamide], the figures for the IC50 in assay [1] and in assay [2] were 10 to 100 nM and 100 to 1000 nM, respectively.

Regarding `Cc1cnnc(-c2ccc(Nc3cn(-c4c(Cl)cccc4Cl)nc3C(N)=O)cc2)c1C` [compound 213, 1-(2,6-dichlorophenyl)-4-((4-(4,5-dimethylpyridazin-3-yl)phenyl)amino)-1H-pyrazole-3-carboxamide], the 50% inhibitory concentration (IC50) in assay [1] lay in the range of 100 to 1000 nM; in assay [2], 10 to 100 nM.

For `NC(=O)c1nn(-c2c(Cl)cccc2Cl)cc1Nc1ccc(-c2nnc3n2CCCC3)cc1` [compound 55, 1-(2,6-dichlorophenyl)-4-((4-(5,6,7,8-tetrahydro-[1,2,4]triazolo[4,3-a]pyridin-3-yl)phenyl)amino)-1H-pyrazole-3-carboxamide], the IC50 in assay [1] lay within 100 to 1000 nM; in assay [2], 10 to 100 nM.
